The source of these data is patent US4361673A, “Polypeptide compositions” (American Home Products Corporation, priority 1981, dated 1982).

The conditions of experiment [1]: several biological models; Low et al.; cited from earlier work.
In experiment [2] the test system is T lymphocytes isolated from spleens of male CBA/J or NZB mice. In words: T lymphocyte proliferation, 3H-thymidine uptake. The class given is cell-based. As for the experimental part:
The activity of the compounds of Examples is determined according to the following procedure:
T lymphocytes are isolated from spleens of male CBA/J or NZB mice. Cell homogenates are prepared in Hank's balanced salt solution (HBSS). After removal of larger particles and repeated washing of the cells in HBSS they are suspended in minimum essential medium (MEM) and passed through a glass wool column to remove macrophages. The cells are then incubated on a nylon wool column at 37° C., 95% air, 5% CO2, for 45 minutes. The non-adherant T lymphocytes are then eluted from the column, counted, and adjusted to 20×10^6 cells/ml. 50 μl. of cells are cultured (37° C., 95% air, 5% Co2) with compound, for 48 hours before addition of 0.5 μCi. of 3H-thymidine for the last 16 hours of culture. The total volume of the culture system is 200 μl. The cells are then harvested on a multiple automatic sample harvester (Mash II), the glass fiber filter disks placed in 10 ml. of xylene base scintillation fluid, and counted for 1 minute in a liquid scintillation counter. Results are reported as CPM±SE. Levamisole is used as the standard. Comparisons are made between counts obtained with control cultures and cultures containing compound and a determination made as to whether the compounds are active at the dosage tested.

Setting [3] is: 1.5 ng/culture, control (0 ng) 49,519 ± 4048.
Where [4] appears, read: 6.0 ng/culture, control (0 ng) 49,519 ± 4048.
Setting [5] is: 25.0 ng/culture, control (0 ng) 49,519 ± 4048.
[6] abbreviates: 100.0 ng/culture, control (0 ng) 49,519 ± 4048.

Counter-ions that a name gives are not always drawn. Non-standard residues stand in square brackets, D forms with d. Residues, ends and D or L forms follow the SMILES beside them. No end group written: not given here. pGlu = O=C1CC[C@@H](C(=O)O)N1

For “thymosin α1 (SDAAVDTSSEITTKDLKEKKEVVEEAEN; ends and bridges not checked; UniProt P06454 2-29, looked up)”, the “activity relative to the parent thymosin Fraction 5” value in experiment [1] was 10-1,000 times.
On to `CC(C)[C@H](NC(=O)[C@H](CCC(=O)O)NC(=O)[C@H](CCCCN)NC(=O)[C@H](CCCCN)NC(=O)[C@@H]1CCC(=O)N1)C(N)=O` [p-Glu--Lys--Lys--Glu--Val--NH2, L-(5-oxoprolyl)-L-lysyl-L-lysyl-L-α-glutamyl-L-valinamide, diacetate salt] ([pGlu]KKEV-NH2), for which the “3H-Thymidine Uptake CPM + S.E.” value in experiment [2] (1.5 ng/culture, control (0 ng) 9,876 ± 951) was 23,736 ± 3417 CPM; in experiment [2] (6.0 ng/culture, control (0 ng) 9,876 ± 951) it was 31,236 ± 2004 CPM; in experiment [2] (25.0 ng/culture, control (0 ng) 9,876 ± 951) it was 26,026 ± 3537 CPM; in experiment [2] (100.0 ng/culture, control (0 ng) 9,876 ± 951) it was 27,830 ± 1749 CPM.
For `NCCCC[C@H](NC(=O)[C@H](CCCCN)NC(=O)[C@@H]1CCC(=O)N1)C(=O)N[C@@H](CCC(=O)O)C(N)=O` [p-Glu--Lys--Lys--Glu--NH2, L-(5-oxoprolyl)-L-lysyl-L-lysyl-L-α-glutamine, diacetate salt] ([pGlu]KKE-NH2), the “3H-Thymidine Uptake CPM + S.E.” value is recorded as 73,407 ± 3333 CPM in experiment [2] (setting [3]), 78,727 ± 7102 CPM in experiment [2] (setting [4]), 73,932 ± 6944 CPM in experiment [2] (setting [5]) and 67,489 ± 5190 CPM in experiment [2] (setting [6]).
`CC(C)[C@H](NC(=O)[C@H](CCC(=O)O)NC(=O)[C@H](CCCCN)NC(=O)[C@@H](N)CCCCN)C(=O)O` [H-- Lys--Lys--Glu Val--OH, L-Lysyl-L-lysyl-L-glutamyl-L-valine, diacetate salt] (H-KKEV-OH): the “3H-Thymidine Uptake CPM + S.E.” value in experiment [2] (2.5 ng/culture, control (0 ng) 2,789 ± 148) is reported as 3,931 ± 140 CPM; in experiment [2] (10 ng/culture, control (0 ng) 2,789 ± 148) it was 3,745 ± 172 CPM; in experiment [2] (25 ng/culture, control (0 ng) 2,789 ± 148) it was 4,397 ± 346 CPM; in experiment [2] (100 ng/culture, control (0 ng) 2,789 ± 148), 4,235 ± 284 CPM.
Take `CC(=O)O.CC(=O)O.CC(=O)O.CC(C)[C@H](NC(=O)[C@H](CCC(=O)O)NC(=O)[C@H](CCCCN)NC(=O)[C@@H](N)CCCCN)C(N)=O` [H--Lys--Lys--Glu--Val--NH2, L-lysyl-L-lysyl-L-glutamyl-L-valineamide, triacetate salt] (H-KKEV-NH2): the “3H-Thymidine Uptake CPM + S.E.” value is reported as 72,713 ± 3633 CPM in experiment [2] (setting [3]), 77,979 ± 3760 CPM in experiment [2] (setting [4]), 62,712 ± 6004 CPM in experiment [2] (setting [5]) and 51,021 ± 5527 CPM in experiment [2] (setting [6]).
With `c1ccc([C@H]2CN3CCSC3=N2)cc1` [Levamisole, reference compound], in experiment [2] (5 ng/culture, 48 h culture, 3H-thymidine last 16 h, control 49,519 ± 4048), the “3H-Thymidine Uptake CPM + S.E.” value was 70,353 ± 1561 CPM.
